US12059422B2 (MEI Pharma, Inc., priority 2011, dated 2024)

Legend:
PI3K beta = target: T1, PI3K beta (Homo sapiens, UniProt P42338); test: Luciferase-based luminescence assay (ADP Glo), PI3K beta enzymatic activity; type: biochemical; conditions: for IC50: inhibition of enzymatic activity, ADP Glo, 25 μM ATP, read-out: IC50 p110β; for α/β ratio: ratio of enzymatic IC50 values, Table 1
T1 construct: purchased Millipore, Billerica, MA, USA
How it was run: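 Final enzyme 4.8 nM PI3K beta or 7.6 nM PI3K gamma, with 50 μM PIP2 and 25 μM ATP, 1 h in HEPES pH 7.5 buffer with MgCl2, EGTA, NaCl, CHAPS and DTT. ADP formed measured by ADP-Glo luminescence; IC50 from 10-point curve fits.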

PI3Kβ = target: T2, PI3Kβ (Homo sapiens, UniProt P42338); test: ELISA assay for PI3Kβ: in-cell ELISA, phosphorylation of AKT (Ser473) in PC-3 cells; type: cell-based; conditions: for IC50: cellular, pAKT (Ser473), PC-3 cells, LPA stimulation, read-out: IC50 p110β; for α/β ratio: ratio of cellular IC50 values, Table 2
T2 construct: endogenous in cells; host or cells: PC-3 (ATCC #CRL-1435)
T2 sequence (P42338 whole entry): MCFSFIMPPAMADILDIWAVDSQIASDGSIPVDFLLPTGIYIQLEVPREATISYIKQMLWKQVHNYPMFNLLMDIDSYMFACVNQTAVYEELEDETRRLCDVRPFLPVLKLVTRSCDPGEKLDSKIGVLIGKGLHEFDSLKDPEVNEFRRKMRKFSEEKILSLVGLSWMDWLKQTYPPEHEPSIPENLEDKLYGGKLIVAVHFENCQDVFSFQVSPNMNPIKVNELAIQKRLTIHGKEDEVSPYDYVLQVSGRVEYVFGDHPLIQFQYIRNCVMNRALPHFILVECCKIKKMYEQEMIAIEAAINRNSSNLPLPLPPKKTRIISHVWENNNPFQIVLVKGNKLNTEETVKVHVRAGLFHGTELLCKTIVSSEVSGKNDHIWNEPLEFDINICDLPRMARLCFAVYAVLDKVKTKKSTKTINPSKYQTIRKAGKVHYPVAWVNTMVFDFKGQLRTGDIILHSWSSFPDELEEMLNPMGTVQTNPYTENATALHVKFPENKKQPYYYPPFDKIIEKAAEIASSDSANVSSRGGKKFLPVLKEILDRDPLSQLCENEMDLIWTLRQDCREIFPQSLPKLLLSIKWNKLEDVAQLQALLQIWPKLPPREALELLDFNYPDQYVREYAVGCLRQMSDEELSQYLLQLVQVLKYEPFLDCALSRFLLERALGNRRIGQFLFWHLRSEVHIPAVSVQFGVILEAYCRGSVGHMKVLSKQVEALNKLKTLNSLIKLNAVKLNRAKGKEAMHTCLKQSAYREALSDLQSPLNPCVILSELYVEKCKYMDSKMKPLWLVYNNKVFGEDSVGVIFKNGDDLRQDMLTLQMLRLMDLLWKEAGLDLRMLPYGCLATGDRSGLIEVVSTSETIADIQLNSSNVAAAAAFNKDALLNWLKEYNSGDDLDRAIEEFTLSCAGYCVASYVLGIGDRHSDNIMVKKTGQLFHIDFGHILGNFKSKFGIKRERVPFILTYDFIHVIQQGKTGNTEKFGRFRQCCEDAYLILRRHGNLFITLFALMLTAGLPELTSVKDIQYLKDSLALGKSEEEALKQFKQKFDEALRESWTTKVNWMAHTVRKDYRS
T2 sequence (P27986 whole entry partner): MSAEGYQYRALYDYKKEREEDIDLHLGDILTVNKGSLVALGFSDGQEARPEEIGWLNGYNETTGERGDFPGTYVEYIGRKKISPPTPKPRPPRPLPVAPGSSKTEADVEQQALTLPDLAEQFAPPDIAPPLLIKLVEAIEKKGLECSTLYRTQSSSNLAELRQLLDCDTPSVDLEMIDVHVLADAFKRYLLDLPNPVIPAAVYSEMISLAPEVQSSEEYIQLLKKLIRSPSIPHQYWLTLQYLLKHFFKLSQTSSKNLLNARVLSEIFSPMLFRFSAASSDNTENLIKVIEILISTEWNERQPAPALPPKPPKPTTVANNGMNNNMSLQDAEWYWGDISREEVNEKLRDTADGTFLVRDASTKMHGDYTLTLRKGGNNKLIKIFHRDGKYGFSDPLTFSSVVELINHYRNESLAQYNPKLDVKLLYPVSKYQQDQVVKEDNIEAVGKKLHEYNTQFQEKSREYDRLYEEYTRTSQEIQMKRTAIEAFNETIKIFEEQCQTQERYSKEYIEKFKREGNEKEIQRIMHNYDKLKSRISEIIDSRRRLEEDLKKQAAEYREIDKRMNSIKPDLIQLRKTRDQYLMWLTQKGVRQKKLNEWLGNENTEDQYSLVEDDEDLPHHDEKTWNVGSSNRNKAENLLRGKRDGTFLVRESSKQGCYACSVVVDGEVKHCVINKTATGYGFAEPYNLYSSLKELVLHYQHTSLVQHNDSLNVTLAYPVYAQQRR
Description: Cellular PI3Kβ activity was determined by measuring the phosphorylation of AKT (Ser473) using an in-cell ELISA assay. PC-3 (prostate carcinoma) cells were obtained from ATCC (ATCC #CRL-1435). Growth medium was DMEM (CellGro #CV-10-013-CV) supplemented with 10% fetal bovine serum, 100 IU/mL penicillin, 100 μg/mL streptomycin, and 1×MEM non-essential amino acids. Phosphate buffered saline (PBS) contained 2.7 M NaCl, 54 mM KCl, 86 mM […] (dibasic, anhydrous), 28 mM […] (monobasic, anhydrous), pH 7.2, 10× stimulation mixture contained 50 μM LPA (Cayman #62215) diluted in serum-free DMEM medium (CellGro #CV-10-013-CV). Compounds for testing were dissolved and serially diluted in 100% DMSO (total of 10 concentrations), then diluted in serum-free DMEM to 2× final assay concentration. 2× fixative solution contained 8% formaldehyde (Amresco #M134) diluted in PBS. Permeabilization solution contained PBS supplemented with 0.1% Triton X-100. Blocking buffer was obtained from LiCor (LiCor #927-40000). Wash buffer contained PBS supplemented with 0.1% Tween-20. Primary antibody solution was rabbit anti-pAKT^S473 monoclonal antibody (Cell Signaling #4060) and mouse anti-total S6 (Santa Cruz #74459) diluted 1:500 and 1:2000, respectively, in blocking buffer. Secondary antibody solution was IRDye 800CW-conjugated goat anti-rabbit IgG (LiCor #926-32211) and IRDye 680LT-conjugated goat anti-mouse IgG (LiCor #926-68020) diluted 1:2000 and 1:1000, respectively, in blocking buffer.
PC-3 cells were subcultured in growth medium and seeded into flat, clear bottom, 96-well plates (Corning #3904) at 16000 cells/well, then incubated overnight in a 37° C., 5% CO2 incubator. Growth medium in plates was replaced with 100 μL/well serum-free DMEM and incubated overnight in a 37° C., 5% CO2 incubator. 50 μL/well of fresh serum-free DMEM was added to plates. Compound treatment was performed by adding 50 μL/well of 2× compound mixture to plates and incubating for 2 hrs at 37° C., 5% CO2, after which 11 μL/well of 10× stimulation mixture was added and plates were incubated for 10 min at 37° C., 5% CO2. Fixation was performed by adding 110 μL/well of 2× fixative solution to plates and incubating for 20 min at room temperature. Permeabilization was performed by replacing fixation solution with 150 μL/well permeabilization solution and incubating for 10 min at room temperature. Permeabilization was repeated (for a total of 2 times). Permeabilization solution was replaced with 100 μL/well blocking buffer and plates were incubated for 1 hr at room temperature, after which 100 μL/well of primary antibody solution was added and plates were incubated overnight at 4° C. Plates were washed with wash buffer, after which 100 μL/well of secondary antibody solution was added to the plates and incubated in the dark for 1 hr at room temperature. Plates were washed with wash buffer, followed by awash with PBS. After completely removing PBS, plates were scanned on the Licor Odyssey Imager. Images quantified using Licor Odyssey application software. IC50 values were determined by curve fitting using a Collaborative Drug Discovery database (www.collaborativedrug.com).

T1 sequence (P42338 whole entry, species assumed): as the sequence (P42338 whole entry) above
T1 sequence (P27986 whole entry partner, species assumed): as the sequence (P27986 whole entry partner) above

| IC50 (PI3K beta) | α/β ratio (PI3K beta) | IC50 (PI3Kβ) | α/β ratio (PI3Kβ) | Structure (SMILES) |
| --- | --- | --- | --- | --- |
| > 500 nM | C’ | ≤ 100 nM | A’ | CCN1CCC(c2ccccc2CC(C)(C)Nc2nc(N3CCOCC3)nc(-n3c(C(F)F)nc4ccccc43)n2)CC1 [Compound A70, 4-(2-(difluoromethyl)-1H-benzo[d]imidazol-1-yl)-N-(1-(2-(1-ethylpiperidin-4-yl)phenyl)-2-methylpropan-2-yl)-6-morpholino-1,3,5-triazin-2-amine] |
| > 500 nM | D’ | ≤ 100 nM | A’ | CC(C)N1CCC(c2ccccc2CC(C)(C)Nc2nc(N3CCOCC3)nc(-n3c(C(F)F)nc4ccccc43)n2)CC1 [Compound A71, 4-(2-(difluoromethyl)-1H-benzo[d]imidazol-1-yl)-N-(1-(2-(1-isopropylpiperidin-4-yl)phenyl)-2-methylpropan-2-yl)-6-morpholino-1,3,5-triazin-2-amine] |
| ≤ 100 nM | A’ | ≤ 100 nM | A’ | CC(=O)N1CCC(c2ccccc2CC(C)(C)Nc2nc(N3CCOCC3)nc(-n3c(C(F)F)nc4ccccc43)n2)CC1 [Compound A72, 4-(2-(difluoromethyl)-1H-benzo[d]imidazol-1-yl)-N-(2-methyl-1-(2-(1-acetylpiperidin-4-yl)phenyl)propan-2-yl)-6-morpholino-1,3,5-triazin-2-amine] |
| ≤ 100 nM | A’ | ≤ 100 nM | A’ | CC(C)(Cc1ccccc1C1CCN(S(C)(=O)=O)CC1)Nc1nc(N2CCOCC2)nc(-n2c(C(F)F)nc3ccccc32)n1 [Compound A73, 4-(2-(difluoromethyl)-1H-benzo[d]imidazol-1-yl)-N-(2-methyl-1-(2-(1-(methylsulfonyl)piperidin-4-yl)phenyl)propan-2-yl)-6-morpholino-1,3,5-triazin-2-amine] |
| > 500 nM | D’ | ≤ 100 nM | A’ | CC(C)(Cc1ccccc1C1CCNC1)Nc1nc(N2CCOCC2)nc(-n2c(C(F)F)nc3ccccc32)n1 (stereo not drawn) [Compound A74, 4-(2-(difluoromethyl)-1H-benzo[d]imidazol-1-yl)-N-(2-methyl-1-(2-(pyrrolidin-3-yl)phenyl)propan-2-yl)-6-morpholino-1,3,5-triazin-2-amine] |
| 200 to 500 nM | C’ | ≤ 100 nM | A’ | CN(C)CCCc1ccccc1CC(C)(C)Nc1nc(N2CCOCC2)nc(-n2c(C(F)F)nc3ccccc32)n1 [Compound A76, 4-(2-(difluoromethyl)-1H-benzo[d]imidazol-1-yl)-N-(1-(2-(3-(dimethylamino)propyl)phenyl)-2-methylpropan-2-yl)-6-morpholino-1,3,5-triazin-2-amine] |
